Measured values published in PMC4708007 (Bioscience Reports, 2015).
Read-outs that look alike come from different tables or passages of the source.

What was measured:
[1] = target: Francisella tularensis RelA (Francisella tularensis subspecies tularensis SCHU S4); assay: SEC
[2] = target: T1, EcRelA (Escherichia coli, UniProt P0AG20); format: biochemical
T1 construct: gene relA
T1 sequence (P0AG20 whole entry): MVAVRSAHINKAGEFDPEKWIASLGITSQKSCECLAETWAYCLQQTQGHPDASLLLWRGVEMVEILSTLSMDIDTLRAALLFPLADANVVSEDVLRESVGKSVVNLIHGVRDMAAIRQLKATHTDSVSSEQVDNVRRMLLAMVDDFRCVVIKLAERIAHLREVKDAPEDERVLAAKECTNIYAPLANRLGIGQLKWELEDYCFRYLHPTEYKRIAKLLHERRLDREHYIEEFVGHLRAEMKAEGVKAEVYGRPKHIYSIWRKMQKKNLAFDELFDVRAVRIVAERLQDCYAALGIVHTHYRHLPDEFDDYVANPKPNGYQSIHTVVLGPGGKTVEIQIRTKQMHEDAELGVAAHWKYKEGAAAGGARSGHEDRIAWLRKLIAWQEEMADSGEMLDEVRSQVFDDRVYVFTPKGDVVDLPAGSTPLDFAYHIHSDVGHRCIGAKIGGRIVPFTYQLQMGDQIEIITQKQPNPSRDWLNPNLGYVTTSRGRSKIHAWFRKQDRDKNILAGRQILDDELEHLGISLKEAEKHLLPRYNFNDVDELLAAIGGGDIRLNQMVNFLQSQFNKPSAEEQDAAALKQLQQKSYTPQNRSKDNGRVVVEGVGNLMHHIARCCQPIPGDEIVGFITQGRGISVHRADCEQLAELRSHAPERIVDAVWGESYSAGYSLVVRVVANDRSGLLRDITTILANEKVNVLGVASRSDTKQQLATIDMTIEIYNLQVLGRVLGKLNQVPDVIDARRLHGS

Compound: Francisella tularensis RelA (enzyme)
- stoichiometry N [1]: 2

Compound: Nc1nc2c(ncn2[C@@H]2O[C@H](COP(=O)(O)OP(=O)(O)OP(=O)(O)O)[C@@H](O)[C@H]2O)c(=O)[nH]1 [GTP]
- IP RP HPLC end-point assay of AMP formation [2]: Both EcRelA and FtRelA demonstrated basal levels of activity in the absence of stalled ribosomes

Compound: Nc1ncnc2c1ncn2[C@@H]1O[C@H](COP(=O)(O)OP(=O)(O)OP(=O)(O)O)[C@@H](O)[C@H]1O [ATP]
- IP RP HPLC end-point assay of AMP formation ([2]; 2 mM ATP and 2 mM GTP, 0.5 μM RelA, with or without stalled ribosomal complexes, 15 mM MgCl2, pH 8.0, 30°C): Both EcRelA and FtRelA demonstrated basal levels of activity in the absence of stalled ribosomes
